SMILES strings stand for the structures.

One experiment has as its system parental Ba/F3 cells. Description: Proliferation of parental (untransformed, wt) Ba/F3 cells (BAF3/WT). In kind it is cell-based, murine. The conditions noted are these: Mus musculus, Table 1, parental cells with IL3, 48 hours. The method, then: (§1) Compound dilutions were made in 384 well plates.
Compounds were tested for their ability to inhibit the proliferation of wt Ba/F3 cells and Ba/F3 cells transformed with constitutively expressed luciferase reporter and BCR-ABL or Tel-FMS or other Tel fusion kinases (EGFR, JAK2, ALK, BMX, FGFR3, FGFR4, FGR2, FLT1, FLT3, IGF1R, INSR, KDR, KIT, LCK, LYN, MEK, MET, PDGFRα, PDGFRβ, RET, RON, ROS, SRC, SYK, TIE and TYRO) or BRafV600E. Parental Ba/F3 cells were maintained in media containing recombinant mouse IL3 and the kinase transformed Ba/F3 cells were maintained in media without IL-3. 7.5 nl of compounds were spotted to each well of 1536-well assay plates by Liquid handling System Echo 555 (Labcyte). 700 cells were then plated into each well of the assay plates in 7 uL culture media per well and compounds were tested at 0.17 nM to 10 uM in 3-fold serial dilutions. The cells were then incubated for 48 hours at 37° C. 3 uL of Bright-Glo® (Promega) was added to each well and the plates were read using ViewLux (PerkinElmer).
(§2) The emited luminiscence is quantified using ViewLux (PerkinElmer).

Experiment [1] deals with T1, Ba/F3 cells transformed with human Tel-TrkA (Homo sapiens, UniProt P04629).
T1 construct: expressed in transfected cells; host or cells: Ba/F3 murine hematopoietic progenitor cells (luciferase expressing); the other entry of the earlier key: ETV6 (P41212, Transcription factor ETV6)
The experiment is described as follows: Proliferation of Ba/F3 cells transformed with human Tel-TrkA (Ba/F3 Tel-TrkA). In kind it is cell-based. The conditions noted are these: Table 1; 48 hours, Bright Glo luminescence; read-out: Ba/F3 Tel-TrkA.
From the text: as §1, §2

T1 sequence (P04629 510-796 limits assumed): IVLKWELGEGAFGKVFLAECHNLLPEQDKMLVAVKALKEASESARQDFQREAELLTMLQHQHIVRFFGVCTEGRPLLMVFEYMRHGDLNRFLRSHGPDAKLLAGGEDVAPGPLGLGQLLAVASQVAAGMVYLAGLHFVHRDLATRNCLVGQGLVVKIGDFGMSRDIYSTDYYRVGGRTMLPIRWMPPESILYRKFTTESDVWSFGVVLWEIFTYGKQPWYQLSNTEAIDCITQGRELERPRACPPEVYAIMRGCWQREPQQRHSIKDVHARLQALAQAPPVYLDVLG

For the compound `NC(=O)c1cnc2ccc(N3CC=C[C@@H]3c3cccc(F)c3)nn12` [X-15, (R)-6-(2-(3-fluorophenyl)-2,5-dihydro-1H-pyrrol-1-yl)imidazo[1,2-b]pyridazine-3-carboxamide], the IC50 came out at 7260 nM with parental Ba/F3 cells and 13 nM in experiment [1].
For `O=C(NCc1ccc(F)cc1)c1cnc2ccc(N3CCC[C@@H]3c3cccc(F)c3)nn12` [X-47], the IC50 was more than 10000 nM with parental Ba/F3 cells and 70 nM in experiment [1].
The matching figures for `NC(=O)c1cnc2ccc(N3C[C@@H](F)C[C@@H]3c3cccc(F)c3)nn12` [X-7, 6-((2R,4S)-4-fluoro-2-(3-fluorophenyl)pyrrolidin-1-yl)imidazo[1,2-b]pyridazine-3-carboxamide]: 3560 nM and 5 nM.
The matching figures for `NC(=O)c1cnc2ccc(N3CCOC[C@H]3c3cccc(F)c3)nn12` [X-17, (R)-6-(3-(3-fluorophenyl)morpholino)imidazo[1,2-b]pyridazine-3-carboxamide]: more than 10000 nM and 328 nM.
With `CC(=O)c1cnc2ccc(N3CCC[C@@H]3c3cccc(F)c3)nn12` [X-125, (R)-1-(6-(2-(3-fluorophenyl)pyrrolidin-1-yl)imidazo[1,2-b]pyridazin-3-yl)ethanone], the IC50 with parental Ba/F3 cells is more than 10000 nM; in experiment [1], 219 nM.
The matching figures for `CCOC(=O)c1cnc2ccc(N3C[C@H](F)C[C@H]3c3cccc(F)c3)nn12` [X-166, ethyl 6-((2S,4R)-4-fluoro-2-(3-fluorophenyl)pyrrolidin-1-yl)imidazo[1,2-b]pyridazine-3-carboxylate]: more than 10000 nM and 314 nM.
Regarding `O=C(NCCO)c1cnc2ccc(N3C[C@@H](F)C[C@@H]3c3cccc(F)c3)nn12` [X-119], the IC50 in the experiment on parental Ba/F3 cells was more than 10000 nM; in experiment [1] it was 3 nM.
With `O=C(NC[C@H](O)CO)c1cnc2ccc(N3CCC[C@@H]3c3cccc(F)c3)nn12` [X-105], the results for the IC50 (with parental Ba/F3 cells; in experiment [1]) were more than 10000 nM and 388 nM, respectively.
The matching figures for `N#Cc1cnc2ccc(N3CCOCC3c3cccc(F)c3)nn12` (centres unmarked) [X-3, 6-(3-(3-fluorophenyl)morpholino)imidazo[1,2-b]pyridazine-3-carbonitrile]: more than 10000 nM and 957 nM.
For `O=C(N[C@H]1CC[C@@H](O)CC1)c1cnc2ccc(N3CCC[C@@H]3c3cccc(F)c3)nn12` [X-80], the values for the IC50 (in the experiment with parental Ba/F3 cells; in experiment [1]) were more than 10000 nM and 6 nM, respectively.
In the case of `CCOC(=O)c1cnc2ccc(N3C[C@@H](F)C[C@@H]3c3ccc(F)c(F)c3)nn12` [X-239], the values for the IC50 (in the experiment on parental Ba/F3 cells; in experiment [1]) were more than 10000 nM and 194 nM, respectively.
With `CC(C)(C)OC(=O)N1CCC(NC(=O)c2cnc3ccc(N4CCC[C@@H]4c4cccc(F)c4)nn23)CC1` [X-63], the results for the IC50 (in the experiment with parental Ba/F3 cells; in experiment [1]) were more than 10000 nM and 60 nM, respectively.
With `O=C(CCc1cccc(N2CCOCC2)n1)c1cnc2ccc(N3CCC[C@@H]3c3cccc(F)c3)nn12` [X-129], the IC50 in the experiment on parental Ba/F3 cells was more than 9710 nM; in experiment [1], 88 nM.
The matching figures for `CS(=O)(=O)N1CCC(NC(=O)c2cnc3ccc(N4C[C@@H](F)C[C@@H]4c4cccc(F)c4)nn23)CC1` [X-121]: 5140 nM and 2 nM.
The matching figures for `COc1cccc(/C=C/C(=O)c2cnc3ccc(N4CCC[C@@H]4c4cccc(F)c4)nn23)n1` [X-131]: 1670 nM and 194 nM.
Regarding `CCOC(=O)c1cnc2ccc(N3C[C@@H](F)C[C@@H]3c3cc(F)cc(C#N)c3)nn12` [X-243], the IC50 in the experiment with parental Ba/F3 cells is more than 10000 nM; in experiment [1] it was 2 nM.
Consider `CC(C)(C)OC(=O)N1CCC(NC(=O)c2cnc3ccc(N4C[C@@H](F)C[C@@H]4c4cccc(F)c4)nn23)CC1` [X-115], for which the IC50 stood at 4600 nM with parental Ba/F3 cells and 1 nM in experiment [1].
As for `CC(=O)N1CCC(NC(=O)c2cnc3ccc(N4CCC[C@@H]4c4cccc(F)c4)nn23)CC1` [X-67], the IC50 was more than 10000 nM with parental Ba/F3 cells and 81 nM in experiment [1].
On the same counts, the results for `O=C(N[C@@H]1c2ccccc2C[C@H]1O)c1cnc2ccc(N3CCC[C@@H]3c3cccc(F)c3)nn12` [X-106] are more than 10000 nM and 3 nM.

The values above are taken from US8637516B2 (IRM LLC, priority 2010, dated 2014).
